Experimental data as given in patent publication US20230114280A1, “COMPOSITIONS AND METHODS CONTAINING REDUCED NICOTINAMIDE RIBOSIDE FOR PREVENTION AND TREATMENT OF NEUROLOGICAL DISEASES AND CONDITIONS” (SOCIETE DES PRODUITS NESTLE S.A., priority 2020, published 2023).
Entries after “also recorded” stand apart in the source; their conditions may differ. Structures can show the parent of a compound that is named as a salt. One block for each molecule: values may come before it.

What was measured:
[1] = test system: primary hepatocytes from either control or NRK1 knockout (NRK1 KO) mice; assay: NAD+ levels in primary hepatocytes from control or NRK1 knockout mice; type: cell-based; settings: after 1 hour of treatment
Text: (§1) If NRH led to NAD+ synthesis via the formation of NMNH, this hypothetical path would require the phosphorylation of NRH into NMNH.

mice = assay: Tissue NAD+ levels after IP injection of NR or NRH in mice; type: in vivo; settings: IP 500 mg/kg, after 1 h
[2] = Circulating NAM, NRH and NR after IP injection in mice; type: in vivo
Method: (§2) The UHPLC consisted of a binary pump, a cooled autosampler, and a column oven (DIONEX Ultimate 3000 UHPLC+ Focused, Thermo Scientific), connected to a triple quadrupole spectrometer (TSQ Vantage, Thermo Scientific) equipped with a heated electrospray ionisation (H-ESI) source. Of each sample, 2 µL were injected into the analytical column (2.1 mm x 150 mm, 5 µm pore size, 200 Å HILICON iHILIC®-Fusion(P)), guarded by a pre-column (2.1 mm x 20 mm, 200 Å HILICON iHlLIC®-Fusion(P) Guard Kit) operating at 35° C. The mobile phase (10 mM ammonium acetate at pH 9, A, and acetonitrile, B) was pumped at 0.25 mL/min flow rate over a linear gradient of decreasing organic solvent (0.5-16 min, 90-25% B), followed by re-equilibration for a total run time of 30 min. The MS operated in positive mode at 3500 V with multiple reaction monitoring (MRM). The software Xcalibur v4.1.31.9 (Thermo Scientific) was used for instrument control, data acquisition and processing.

[3] = Stability of NRH or NR spiked in isolated mouse plasma; type: in vitro ADME
Method: as §2
(§3) NR degradation to NAM has been proposed as a limitation for its pharmacological efficacy.

INS1-cells = assay: NAD+ levels after NRH treatment in INS1-cells; type: cell-based
3T3 fibroblasts = assay: NAD+ levels after NRH treatment in 3T3 fibroblasts; type: cell-based
C2C12 myotubes = assay: NAD+ levels after NRH treatment in C2C12 myotubes; type: cell-based
[4] = Text: as §3
AML12 hepatocytes = assay: Intracellular NAD+ levels in AML12 hepatocytes treated with NRH or NR (dose-response, time course); type: cell-based
Method: FIG. 3. NHR acts rapidly after 5 minutes from treatment.

AML12 cells = assay: Pathway of NRH-induced NAD+ synthesis: intracellular metabolites and pathway inhibitors (NBTI, FK866, 5-IT, ABT-702, gallotannin); type: cell-based; set-up: action on NAD+ under adenosine kinase inhibition by 5-IT: dose or concentration left out as unconfirmed
Method: FIG. 4. NRH leads to NAD+ biosynthesis through an adenosine kinase dependent path. […] Then, 1 hour later, acidic extracts were obtained to measure NAD^+ levels. All values in the figure are expressed as mean +/- SEM of 3 independent experiments. * indicates statistical difference at p< 0.05 vs. the respective vehicle treated group.
A path in which NRH would be converted to NMNH, then to NADH and this would be finally oxidized to NAD+.
In order to understand the exact path by which NRH synthesizes NAD+, we initially evaluated whether NRH, could be transported into the cell by equilibrative nucleoside transporters (ENTs).
as §1
Considering the molecular structure of NRH, we reasoned that an alternative nucleoside kinase could be responsible for the phosphorylation of NRH.
As a follow-up step, NMNAT enzymes could catalyze the transition from NMNH to NADH.

[5] = test system: Primary rat cortical neurons; assay: Amyloid β oligomer induced loss of neurite network in primary cortical neurons (MAP-2 staining); type: cell-based; settings: NRH 0.01 mM pre-incubated 24 hr or 6 hr, Aβ1-42 15 µmol/L for 24 h
Method: FIG. 7. […] Primary rat cortical neurons were cultured as described in Callizot et al., 2013. […] The Aβ1-42 preparation was done as described in Callizot et al., 2013. The Aβ1-42 preparation was added to a final concentration of 15 µmol/L (2.25 µmol/L oligomers, AβO) diluted in control medium in presence of compounds and let for 24 h. The cortical neurons were then fixed by a cold solution of ethanol (95%) and acetic acid (5%), permeabilized with saponin and incubated with an anti microtubule-associated-protein 2 (MAP-2), to stain cell bodies and neurites, allowing the study of the length of the neurite network. For each condition, 30 pictures (representative of the all well area) per well were taken using ImageXpress (Molecular Devices) with 20x magnification. Neurite length was then evaluated as % of control values. All values are expressed as mean +/-SEM from 5-6 independent wells. * indicates statistically significant difference vs. the amyloid b1-42 treated groups.
Primary rat cortical neurons were cultured as described in Callizot et al., 2013. […] The Aβ1-42 preparation was done as described in Callizot et al., 2013. The Aβ1-42 preparation was added to a final concentration of 15 µmol/L (2.25 µmol/L oligomers, AβO) diluted in control medium in presence of compounds and let for 24 h. […] Neurite length was then evaluated as % of control values.

NAD+ levels in NRK1 KO derived primary hepatocytes [1]: failed to increase NAD+ levels
NAM levels in circulation ([2]; mice, IP 500 mg/kg): highly increased
generation of NAM in isolated mouse plasma ([3]; 2 h of incubation): increase in NAM
levels of the compound in isolated mouse plasma ([3]; 2 h of incubation): NR levels decayed in plasma
Molecule: NC(=O)c1ccc[n+]([C@@H]2O[C@H](CO)[C@@H](O)[C@H]2O)c1 [NR, 1-b-D-ribofuranosyl-3-pyridinecarboxamide salt, reference compound]
NAD+ levels in liver, muscle and kidney (mice): increased NAD+ levels in liver, muscle and kidney

degradation to NAM in FBS supplemented media [4]: did not degrade to NAM
NAM levels in circulation ([2]; mouse, in vivo, ip, 500 mg/kg): only a very mild increase
NR production on incubation in isolated plasma [3]: did not lead to NR production
Molecule: dihydro-1-beta-D-ribofuranosyl-3-pyridinecarboxamide [NRH]
NAD+ levels (INS1-cells): highly elevated NAD+ levels
NAD+ levels (3T3 fibroblasts): highly elevated NAD+ levels
NAD+ levels in liver, muscle and kidney (mice): increased NAD+ levels in liver, muscle and kidney
NAD+ levels (C2C12 myotubes): highly elevated NAD+ levels
NR in circulation ([2]; mouse, in vivo): much higher levels than those detected after NR injection itself
ability to increase intracellular NAD+ compared with NR (AML12 hepatocytes): better than NR; also recorded: superior to that of NR
concentration range of maximal effects on NAD+ synthesis (AML12 hepatocytes): around the millimolar range
time to significant increases in NAD+ levels after treatment (AML12 hepatocytes): ≤ 5 min
increase of intracellular NAD+ levels at maximal effect (AML12 hepatocytes; around the millimolar range): more than 10 fold
concentration at which NAD+ levels are significantly increased (AML12 hepatocytes; dose-response): 10 µM
action on NAD+ under adenosine kinase inhibition by 5-IT (AML12 cells; 5-IT for 1 hour prior to NRH, NAD+ measured 1 hour later): fully ablated the action of NRH
formation of NR and NMN after NRH treatment with 5-IT (AML12 cells; 5-IT treatment): prevented the formation of NR and NMN
intracellular detection of NRH and NMNH (AML12 cells; 5 minutes after treatment): could be detected intracellularly
generation of NMNH, NADH and NAD+ upon inhibition of AK (metabolomic analyses) (AML12 cells; after NRH treatment): fully blunted
intracellular NR and NMN after treatment (AML12 cells; compared with NR treatment): increase in intracellular NR and NMN, greater than that triggered by NR itself
NAD+ synthesis with NMNAT inhibitor gallotannin (AML12 cells; gallotannin): largely compromised NAD+ synthesis
NRH action with gallotannin at maximal doses (AML12 cells; gallotannin, NRH 0.5 mM): part of the NRH action remained
NRH action with gallotannin at submaximal doses (AML12 cells; gallotannin, submaximal NRH doses): totally blocked
capacity as extracellular NAD+ precursor under ENT blockade (AML12 cells; in the presence of S-(4-nitrobenzyl)-6-thioinosine (NBTI)): largely lost its capacity as an extracellular NAD+ precursor
action on NAD+ under adenosine kinase inhibition by ABT-702 (AML12 cells; second, structurally different AK inhibitor ABT-702): role of AK in NRH-mediated NAD+ synthesis was confirmed
dependence of action on NAMPT (AML12 cells; with FK866, a NAMPT inhibitor): NAMPT-independent
neurite network / neurite length after Amyloid β1-42 exposure [5]: protects against Amyloid β oligomer induced loss of neurite network; also recorded: protects against Amyloid β-oligomer induced toxicity in terms of neurite length
